Source: the NIST ThermoML archive (doi:10.1016/j.jct.2008.02.020)
Numbers after ± are expanded uncertainties.

Conditions: Liquid, Buoyancy - hydrostatic balance with magnetic suspension - one sinker

Brc1ccccc1 [bromobenzene]
Conditions	mass density [kg/m3]
248.15 K, 99.7 kPa	1554.49 ± 0.68
248.15 K, 1231.4 kPa	1555.37 ± 0.68
248.15 K, 2075.4 kPa	1556.04 ± 0.68
248.15 K, 4196.2 kPa	1557.7 ± 0.68
248.15 K, 5951 kPa	1559.05 ± 0.68
248.15 K, 8068.3 kPa	1560.67 ± 0.68
248.15 K, 10015 kPa	1562.11 ± 0.68
248.15 K, 11952 kPa	1563.58 ± 0.69
248.15 K, 13995 kPa	1565.09 ± 0.69
248.15 K, 15940 kPa	1566.53 ± 0.69
248.15 K, 18145 kPa	1568.12 ± 0.69
248.15 K, 19946 kPa	1569.42 ± 0.69
248.15 K, 21965 kPa	1570.86 ± 0.69
248.15 K, 24136 kPa	1572.41 ± 0.69
248.15 K, 25865 kPa	1573.62 ± 0.69
248.15 K, 27917 kPa	1575.05 ± 0.69
248.15 K, 29850 kPa	1576.39 ± 0.69
273.15 K, 100.51 kPa	1520.56 ± 0.66
273.15 K, 1116.3 kPa	1521.45 ± 0.66
273.15 K, 2128.1 kPa	1522.34 ± 0.66
273.15 K, 4045.8 kPa	1524.03 ± 0.66
273.15 K, 5967.3 kPa	1525.66 ± 0.66
273.15 K, 8142.8 kPa	1527.52 ± 0.66
273.15 K, 10020 kPa	1529.11 ± 0.66
273.15 K, 11896 kPa	1530.68 ± 0.66
273.15 K, 13922 kPa	1532.35 ± 0.66
273.15 K, 16083 kPa	1534.13 ± 0.67
273.15 K, 18195 kPa	1535.83 ± 0.67
273.15 K, 20035 kPa	1537.31 ± 0.67
273.15 K, 21829 kPa	1538.75 ± 0.67
273.15 K, 23856 kPa	1540.34 ± 0.67
273.15 K, 25976 kPa	1542.02 ± 0.67
273.15 K, 28098 kPa	1543.65 ± 0.67
273.15 K, 29947 kPa	1545.09 ± 0.67
293.15 K, 101.93 kPa	1493.56 ± 0.64
293.15 K, 1239.7 kPa	1494.68 ± 0.64
293.15 K, 2010.7 kPa	1495.41 ± 0.64
293.15 K, 4059.7 kPa	1497.37 ± 0.64
293.15 K, 6007.9 kPa	1499.22 ± 0.64
293.15 K, 8079.8 kPa	1501.16 ± 0.64
293.15 K, 10001 kPa	1502.94 ± 0.64
293.15 K, 11960 kPa	1504.73 ± 0.65
293.15 K, 14169 kPa	1506.73 ± 0.65
293.15 K, 15879 kPa	1508.27 ± 0.65
293.15 K, 17960 kPa	1510.11 ± 0.65
293.15 K, 19999 kPa	1511.9 ± 0.65
293.15 K, 21880 kPa	1513.53 ± 0.65
293.15 K, 24122 kPa	1515.46 ± 0.65
293.15 K, 26141 kPa	1517.17 ± 0.65
293.15 K, 28060 kPa	1518.79 ± 0.65
293.15 K, 29993 kPa	1520.42 ± 0.66
313.15 K, 102.54 kPa	1466.55 ± 0.62
313.15 K, 2000.8 kPa	1468.59 ± 0.62
313.15 K, 4011 kPa	1470.71 ± 0.62
313.15 K, 6189.6 kPa	1473 ± 0.62
313.15 K, 7991.6 kPa	1474.86 ± 0.62
313.15 K, 10089 kPa	1477.01 ± 0.63
313.15 K, 12143 kPa	1479.06 ± 0.63
313.15 K, 14015 kPa	1480.93 ± 0.63
313.15 K, 16087 kPa	1482.94 ± 0.63
313.15 K, 18047 kPa	1484.85 ± 0.63
313.15 K, 20004 kPa	1486.73 ± 0.63
313.15 K, 22154 kPa	1488.76 ± 0.63
313.15 K, 23944 kPa	1490.45 ± 0.64
313.15 K, 26100 kPa	1492.42 ± 0.64
313.15 K, 28042 kPa	1494.21 ± 0.64
313.15 K, 29906 kPa	1495.9 ± 0.64
333.15 K, 100.42 kPa	1439.38 ± 0.6
333.15 K, 1115 kPa	1440.6 ± 0.6
333.15 K, 1943.4 kPa	1441.57 ± 0.6
333.15 K, 4094.5 kPa	1444.1 ± 0.6
333.15 K, 6114.2 kPa	1446.44 ± 0.61
333.15 K, 7927.8 kPa	1448.51 ± 0.61
333.15 K, 10022 kPa	1450.84 ± 0.61
333.15 K, 11958 kPa	1453 ± 0.61
333.15 K, 13999 kPa	1455.24 ± 0.61
333.15 K, 16049 kPa	1457.44 ± 0.61
333.15 K, 18156 kPa	1459.68 ± 0.61
333.15 K, 20008 kPa	1461.63 ± 0.62
333.15 K, 22158 kPa	1463.84 ± 0.62
333.15 K, 24130 kPa	1465.86 ± 0.62
333.15 K, 26094 kPa	1467.85 ± 0.62
333.15 K, 28018 kPa	1469.76 ± 0.62
333.15 K, 29890 kPa	1471.61 ± 0.62
353.15 K, 99.8 kPa	1411.94 ± 0.58
353.15 K, 1173.8 kPa	1413.37 ± 0.59
353.15 K, 1944.3 kPa	1414.39 ± 0.59
353.15 K, 3949.8 kPa	1417.01 ± 0.59
353.15 K, 5968.9 kPa	1419.61 ± 0.59
353.15 K, 7990.5 kPa	1422.16 ± 0.59
353.15 K, 9916 kPa	1424.56 ± 0.59
353.15 K, 11987 kPa	1427.09 ± 0.59
353.15 K, 14135 kPa	1429.67 ± 0.6
353.15 K, 15921 kPa	1431.8 ± 0.6
353.15 K, 18146 kPa	1434.39 ± 0.6
353.15 K, 19874 kPa	1436.37 ± 0.6
353.15 K, 22180 kPa	1438.99 ± 0.6
353.15 K, 23964 kPa	1440.98 ± 0.6
353.15 K, 26085 kPa	1443.32 ± 0.6
353.15 K, 28122 kPa	1445.53 ± 0.61
353.15 K, 29956 kPa	1447.5 ± 0.61
373.15 K, 98.54 kPa	1384.07 ± 0.57
373.15 K, 1150.1 kPa	1385.64 ± 0.57
373.15 K, 2174.4 kPa	1387.16 ± 0.57
373.15 K, 3917.7 kPa	1389.71 ± 0.57
373.15 K, 6182.4 kPa	1392.96 ± 0.57
373.15 K, 8042.7 kPa	1395.57 ± 0.57
373.15 K, 10003 kPa	1398.28 ± 0.58
373.15 K, 12008 kPa	1400.99 ± 0.58
373.15 K, 14086 kPa	1403.76 ± 0.58
373.15 K, 15913 kPa	1406.15 ± 0.58
373.15 K, 18066 kPa	1408.91 ± 0.58
373.15 K, 19882 kPa	1411.21 ± 0.58
373.15 K, 22174 kPa	1414.05 ± 0.59
373.15 K, 24053 kPa	1416.33 ± 0.59
373.15 K, 25897 kPa	1418.54 ± 0.59
373.15 K, 27711 kPa	1420.7 ± 0.59
373.15 K, 29531 kPa	1422.85 ± 0.59
393.15 K, 97.33 kPa	1355.66 ± 0.55
393.15 K, 1226 kPa	1357.56 ± 0.55
393.15 K, 2181.2 kPa	1359.15 ± 0.55
393.15 K, 3965.3 kPa	1362.08 ± 0.55
393.15 K, 6075.4 kPa	1365.47 ± 0.56
393.15 K, 8146.9 kPa	1368.75 ± 0.56
393.15 K, 9937.3 kPa	1371.46 ± 0.56
393.15 K, 11970 kPa	1374.53 ± 0.56
393.15 K, 14177 kPa	1377.78 ± 0.56
393.15 K, 15956 kPa	1380.34 ± 0.56
393.15 K, 18164 kPa	1383.47 ± 0.57
393.15 K, 20147 kPa	1386.23 ± 0.57
393.15 K, 22176 kPa	1389 ± 0.57
393.15 K, 23982 kPa	1391.42 ± 0.57
393.15 K, 26170 kPa	1394.3 ± 0.57
393.15 K, 28005 kPa	1396.7 ± 0.57
393.15 K, 29542 kPa	1398.68 ± 0.58
413.15 K, 99.45 kPa	1326.55 ± 0.53
413.15 K, 1202.8 kPa	1328.65 ± 0.53
413.15 K, 2177.1 kPa	1330.51 ± 0.53
413.15 K, 3915.5 kPa	1333.73 ± 0.54
413.15 K, 6185.5 kPa	1337.83 ± 0.54
413.15 K, 8176.1 kPa	1341.33 ± 0.54
413.15 K, 10032 kPa	1344.48 ± 0.54
413.15 K, 12104 kPa	1348.01 ± 0.55
413.15 K, 13992 kPa	1351.03 ± 0.55
413.15 K, 15890 kPa	1354.12 ± 0.55
413.15 K, 18162 kPa	1357.68 ± 0.55
413.15 K, 19933 kPa	1360.41 ± 0.55
413.15 K, 22150 kPa	1363.74 ± 0.55
413.15 K, 24133 kPa	1366.66 ± 0.56
413.15 K, 26039 kPa	1369.41 ± 0.56
413.15 K, 27898 kPa	1372.06 ± 0.56
413.15 K, 29858 kPa	1374.81 ± 0.56
433.15 K, 1243.8 kPa	1299.09 ± 0.52
433.15 K, 1973.3 kPa	1300.66 ± 0.52
433.15 K, 4075.9 kPa	1305.09 ± 0.52
433.15 K, 6197.8 kPa	1309.43 ± 0.52
433.15 K, 7981.5 kPa	1312.95 ± 0.52
433.15 K, 10020 kPa	1316.91 ± 0.53
433.15 K, 12073 kPa	1320.75 ± 0.53
433.15 K, 14034 kPa	1324.34 ± 0.53
433.15 K, 15960 kPa	1327.77 ± 0.53
433.15 K, 17921 kPa	1331.19 ± 0.53
433.15 K, 19992 kPa	1334.75 ± 0.54
433.15 K, 21950 kPa	1337.95 ± 0.54
433.15 K, 24018 kPa	1341.31 ± 0.54
433.15 K, 26143 kPa	1344.68 ± 0.54
433.15 K, 28052 kPa	1347.64 ± 0.54
433.15 K, 29864 kPa	1350.43 ± 0.55
453.15 K, 1135.4 kPa	1268.14 ± 0.5
453.15 K, 1982.5 kPa	1270.24 ± 0.5
453.15 K, 4017.7 kPa	1275.16 ± 0.5
453.15 K, 6189 kPa	1280.22 ± 0.5
453.15 K, 7994.2 kPa	1284.28 ± 0.51
453.15 K, 10139 kPa	1288.98 ± 0.51
453.15 K, 12157 kPa	1293.2 ± 0.51
453.15 K, 13982 kPa	1296.94 ± 0.51
453.15 K, 16134 kPa	1301.21 ± 0.52
453.15 K, 18122 kPa	1305.05 ± 0.52
453.15 K, 19974 kPa	1308.56 ± 0.52
453.15 K, 22141 kPa	1312.52 ± 0.52
453.15 K, 24115 kPa	1316.05 ± 0.53
453.15 K, 26121 kPa	1319.56 ± 0.53
453.15 K, 28034 kPa	1322.83 ± 0.53
453.15 K, 29912 kPa	1325.98 ± 0.53
473.15 K, 1191.2 kPa	1236.28 ± 0.48
473.15 K, 2175.4 kPa	1239.12 ± 0.48
473.15 K, 4131.5 kPa	1244.58 ± 0.48
473.15 K, 5988.1 kPa	1249.54 ± 0.49
473.15 K, 8161.4 kPa	1255.13 ± 0.49
473.15 K, 10165 kPa	1260.08 ± 0.49
473.15 K, 12166 kPa	1264.85 ± 0.49
473.15 K, 14163 kPa	1269.43 ± 0.5
473.15 K, 16125 kPa	1273.8 ± 0.5
473.15 K, 18167 kPa	1278.2 ± 0.5
473.15 K, 20146 kPa	1282.35 ± 0.51
473.15 K, 22123 kPa	1286.36 ± 0.51
473.15 K, 24157 kPa	1290.39 ± 0.51
473.15 K, 26075 kPa	1294.08 ± 0.51
473.15 K, 28020 kPa	1297.73 ± 0.51
473.15 K, 29860 kPa	1301.12 ± 0.52
